What was measured:
Caco-2 cells = assay: Endocytosis inhibition experiments (Neu5Gc incorporation); assay type: cell-based, human; details: Caco-2, 2 h pre-treatment with drug, then 3 mM Neu5Gc
Method: The sonicate was centrifuged at 75×g for 15 min., and the pellet Obtained consisted primarily of nuclei and unbroken cells. […] A portion (20%) of the “total homogenate” fraction was taken for protein quantification and Sia analysis by DMB derivatization and HPLC analysis (as discussed below.) The remainder was centrifuged at 100,000×g for 1 h. The resulting pellet, called the “membrane” fraction, was then resuspended by sonication (15 sec.) in 200 μl of sodium acetate buffer, pH 5.5. The 100,000×g supernatant, called the “soluble” fraction was adjusted to 90% ethanol using absolute ice-cold ethanol, and placed overnight at −20° C. The flocculant precipitate, which represents the “soluble protein” fraction, was washed 3 times with 90%® ice-cold ethanol and then resuspended in 200 μl of water. The supernatant fluid representing the cytosolic low molecular weight (LMW) fraction was dried and brought up in 100 μL with water prior to Sia analysis. All the Sias in these fractions were released with mild acid hydrolysis if necessary and then analyzed by HPLC after DMB derivatization. Protein quantification was performed on the total homogenate, membrane and soluble protein fractions by using the BCA protein assay kit from Pierce (Rockford, Ill.) In some experiments, the resulting data obtained for the Sia bound to the membrane fraction and to the soluble proteins were pooled and presented here as a High Molecular Weight (HMW) fraction. Sialic Acid Release, DMB Derivatization and HPLC Analysis—The bound Sias from the total homogenate, membrane and soluble protein fractions were released using 2M acetic acid hydrolysis, 3 h. at 80° C. The released Sias, or free Sias, contained in the soluble LMW fraction were passed through a Microcon® YM-10 filter (Millipore, Bedford, Mass.) prior to DMB derivatization, which was done according to Hara et al., 1989. […] The eluant was monitored by fluorescence. Quantification of Sias—For all HPLC chromatograms, the quantification of Sias was done by comparison with known quantities of DMB derivatized Neu5Gc and Neu5Ac used as standards and then reported in terms of pmoles of Sia. For total homogenate, membrane and cytosolic protein fractions, this number was expressed per mg of protein. Due to minor sample-to-sample variations in amounts and recoveries, the data in the Figures is presented as percent of Neu5Gc over total Sias, rather than as absolute amounts. Endocytosis Inhibition Experiments—Caco-2 or normal fibroblast cells were split and cultured in alpha-MEM media supplemented respectively with 20% or 15% human serum for 4 days before starting the endocytosis drug inhibition experiments in order to deplete any Neu5Gc derived from FCS. Cells were then pre-treated for 2 h. with the specific inhibitors under the same culture conditions. Fresh media containing the same amount of inhibitor and 3 mM of Neu5Gc was then added to the cells, which were incubated for 16 h or 3 days and finally harvested and fractionated as described above.

[1] = system: normal human skin fibroblasts; assay: Neu5Gc/ManNGc feeding experiment, normal (WT) fibroblasts, DMB-HPLC; assay type: cell-based; details: normal wild-type (WT) fibroblasts, fed 3 mM for 3 days
Method: Neu5Gc and ManNGc Feeding Experiment—Neu5Ac, Neu5Gc or ManNGc were dried, dissolved in the appropriate media supplemented with heat-inactivated human serum, sterilized using a Spin-X® (Corning Inc., Corning, N.Y.) and then added to the cells. The pH of the media containing Sia was adjusted to neutrality using sterilized 1M NaOH before starting the feeding experiment. Cells were cultured in the presence of up to 3 mM free Sia or ManNGc for 1 or 3 days at 37° C. At the end of the feeding, cells were washed with cold PBS, harvested either by scraping or with 2 mM EDTA for fibroblasts, and washed again with cold PBS prior to fractionation.
Fractionation of the Labeled Cells—Washed cell pellets were sonicated into 500 μL of 20 mM sodium phosphate buffer or 20 mM Tris-HCl, pH 7.5, using 4×15 second pulses of a sonicator cell disrupter, model Some Dismembrator (Fisher Scientific, Hampton, N.J.) at a probe setting of 3. The sonicate was centrifuged at 75×g for 15 min., and the pellet Obtained consisted primarily of nuclei and unbroken cells. The pellet contained <5% of the incorporated sialic acid as determined using a radioactive tracer (data not shown.) The supernatant was therefore considered as the “total homogenate” fraction. A portion (20%) of the “total homogenate” fraction was taken for protein quantification and Sia analysis by DMB derivatization and HPLC analysis (as discussed below.) The remainder was centrifuged at 100,000×g for 1 h. The resulting pellet, called the “membrane” fraction, was then resuspended by sonication (15 sec.) in 200 μl of sodium acetate buffer, pH 5.5. The 100,000×g supernatant, called the “soluble” fraction was adjusted to 90% ethanol using absolute ice-cold ethanol, and placed overnight at −20° C. The flocculant precipitate, which represents the “soluble protein” fraction, was washed 3 times with 90%® ice-cold ethanol and then resuspended in 200 μl of water. The supernatant fluid representing the cytosolic low molecular weight (LMW) fraction was dried and brought up in 100 μL with water prior to Sia analysis. All the Sias in these fractions were released with mild acid hydrolysis if necessary and then analyzed by HPLC after DMB derivatization. Protein quantification was performed on the total homogenate, membrane and soluble protein fractions by using the BCA protein assay kit from Pierce (Rockford, Ill.) In some experiments, the resulting data obtained for the Sia bound to the membrane fraction and to the soluble proteins were pooled and presented here as a High Molecular Weight (HMW) fraction.
Sialic Acid Release, DMB Derivatization and HPLC Analysis—The bound Sias from the total homogenate, membrane and soluble protein fractions were released using 2M acetic acid hydrolysis, 3 h. at 80° C. The released Sias, or free Sias, contained in the soluble LMW fraction were passed through a Microcon® YM-10 filter (Millipore, Bedford, Mass.) prior to DMB derivatization, which was done according to Hara et al., 1989. DMB-Sia derivatives from the different fractions were then analyzed by HPLC using a C18 column (Microsorb MV-TM 100 A, Varian, Palo Alto, Calif.) Isocratic elution was achieved using 7% methanol, 8% acetonitrile in water during 50 min. at 0.9 ml/min flow. The eluant was monitored by fluorescence.
Quantification of Sias—For all HPLC chromatograms, the quantification of Sias was done by comparison with known quantities of DMB derivatized Neu5Gc and Neu5Ac used as standards and then reported in terms of pmoles of Sia. […]

Row | Compound | Neu5Gc incorporation into membrane-bound glycoconjugates in the presence of inhibitor (Caco-2 cells) [%] | percent of Neu5Gc in membrane-bound glycoconjugates [1] [%] | incorporation of Neu5Gc in the TH fraction in the presence of inhibitor (Caco-2 cells) [%]
1 | N=C(N)NC(=O)c1nc(Cl)c(N)nc1N [amiloride] | 10 | – | –
2 | O=C(CO)N[C@@H]1C(O)O[C@H](CO)[C@@H](O)[C@@H]1O (stereo partly shown) [ManNGc, N-glycolylmannosamine] | – | 19 | –
3 | O=c1c(-c2ccc(O)cc2)coc2cc(O)cc(O)c12 [genistein] | 34 | – | 51

From patent US8232448B2, “Transgenic mouse with a homozygous mutation in the CMAH gene” (The Regents of the University of California, priority 2005, dated 2012)
